{"source": "paper PMC13408441", "about": "“Molecular regulation and physiological role of GOLPH3-mediated Golgi retention” (Nature Communications, 2026)", "key": {"GOLPH3": {"tested_on": "GOLPH3", "test": "Click-PEG metabolic labeling of GOLPH3 S-acylation", "assay_type": "cell-based, human", "settings": "HeLa, 4 hours", "description": "Cells are washed twice with serum-free medium with 1 mg/ml BSA and incubated indicated times with either 100 µM palmitic acid azide or 100uM unlabeled palmitic acid (control). Cells are washed 3 times with cold PBS and lysed in 50 mM Tris-HCl (pH 8.0) and 0.5% SDS. Cell lysates are subjected to click reaction with 5 kDa mPEG-Alkyne, CuSO4, TBTA and ascorbic acid for 1 h at room temperature. Samples are boiled with 4x SDS with BME sample buffer, and analyzed by WB on reducing condition on 4–20% SDS-PAGE gels."}, "PI4KIIIβ": {"tested_on": "PI4KIIIβ", "test": "GOLPH3 Golgi localization upon PtdIns(4)P depletion by PIK93", "assay_type": "cell-based, human", "settings": "1 h", "description": "Immunofluorescence and confocal microscopy\nHeLa GOLPH3-KO cells transfected with the different GOLPH3 constructs were plated at approximately 50% confluency post-transfection. Cells were washed with PBS, fixed in 4% paraformaldehyde (PFA) for 20 minutes, washed with PBS, quenched with 50 mM NH4Cl for 10 minutes, and washed again with PBS. Cells were permeabilized with 0.05% saponin in PBS for 5 minutes. Subsequently, cells were washed and blocked with 3% BSA and 0.05% saponin in PBS for 30 minutes. Primary antibodies (anti-GOLPH3 and anti-GM130) and secondary antibodies were diluted in the same buffer. After blocking, coverslips were washed and incubated with primary antibodies overnight at 4 °C, washed in PBS, and incubated for 45 minutes with secondary antibodies. Cells were then washed and stained with Hoechst for nuclear visualization. Finally, coverslips were mounted in Prolong Glass Antifade Mountant.\nImages were acquired using a Zeiss LSM 980 Inverted microscope with a 63X objective, a pinhole size of 1 AU and at least 2 line-averaging or alternatively using Oympus Evident FV4000. Super-resolution images were taken using Zeiss LSM980 with Airyscan2 module, with 63×oil-immersion objectives. Images were processed using Fiji (ImageJ). Cis-to-trans Golgi linescans were recorded using the “Color Profiler” plugin (Color_Profiler. jar, https://imagej.nih.gov/ij/plugins/color -profiler.html) in Fiji software. […]\nFigure S5. GOLPH3 regulation by S-acylation\nA. Immunofluorescence analysis of GOLPH3 Golgi localization upon acute PtdIns(4)P depletion.\nGOLPH3-KO HeLa cells expressing CERT-GFP (cyan) or GOLPH3 variants (yellow) were treated with increasing concentrations of PIK93 for 1 h. Golgi localization, assessed by colocalization with GM130 (magenta), is highlighted in the insets. Scale bar, 5 µm. […]"}, "[1]": {"test": "CD thermal denaturation of GOLPH3 proteins", "assay_type": "physicochemical, human", "settings": "CD at 207 nm, 20 to 95 °C at 1 °C/min, 10 μM protein, 100 mM NaCl, 50 mM Tris pH 7.4, 1 mM TCEP", "description": "(§1) Supplemental Material for Theodoropoulou, Nasrallah, et al 2026\nIsothermal titration calorimetry\nIsothermal titration calorimetry (ITC) experiments were performed on a MicroCal PEAQ-ITC (Malvern Panalytical), with GOLPH3 variants being in a buffer containing 250 mM NaCl, 50 mM Tris pH 8.0 and 1 mM TCEP. LCS peptides were synthesised and delivered as lyophilised powder (Genscript). The peptides were dissolved in the protein buffer and their concentrations were calculated based upon their absorbance at 280 nm and their corresponding molar extinction coefficient. Experiments consisted of titrations of a single 0.4 µL injection followed […]\nGOLPH3 proteins at a 100 μM concentration. Experiments were performed at 25 °C in triplicate (n = 3), with injection duration of 4 s, injection spacing of 150 s, stir speed of 750 rpm, and reference power of 7 μcal/s. Data were processed and plotted using MicroCal PEAQ‐ITC Analysis Software and fitted to a one‐site binding model.\n(§2) Circular Dichroism Spectroscopy\n(§3) Circular Dichroism Spectra of GOLPH3 proteins (at 10 μM in 100 mM NaCl, 50 mM Tris pH 7.4 and 1 mM TCEP) were collected with a Chirascan V100 (AppliedPhotophysics), using a 1 mm path length cuvette, at 20 °C, in the 200-260 nm range. Thermal denaturation experiments […]\n(§4) every 1 °C, with a temperature ramp speed of 1 °C/min and an equilibration time of […]"}, "[2]": {"test": "SEC-MALS of GOLPH3 constructs", "assay_type": "physicochemical, human", "settings": "12 mg/mL, 250 mM NaCl, 50 mM Tris pH 8.0, 1 mM TCEP", "description": "Supplemental Material for Theodoropoulou, Nasrallah, et al 2026 buffer. Pooled fractions were concentrated to the required concentration using a MWCO concentrator (Millipore) with a cutoff of 10 kDa.\nSize exclusion chromatography coupled to multi-angle light scattering\nThe molecular weights of the tested constructs were determined by size exclusion chromatography coupled to multi-angle light scattering (SEC-MALS). The mass measurements were performed on a UltiMate3000 HPLC system equipped with a 3 angles miniDAWN TREOS static light scattering detector (Wyatt Technology). The sample volumes of 5−10 μl at a concentration of 12 mg/mL, were applied to a Superdex 200 5/150 GL column (Cytiva) previously equilibrated with 250 mM NaCl, 50 mM Tris pH 8.0, 1 mM TCEP at a flow rate of 0.08 mL/min. The data were analyzed using the ASTRA 6.1 software package (Wyatt technology), using the absorbance at 280 nm and the theoretical extinction coefficient for concentration measurements.\nNuclear Magnetic Resonance (NMR) Spectroscopy\nAll proteins used for NMR experiments were designed on the GOLPH3-4G background due to its higher stability and solubility. Recombinant proteins were prepared with the isotope enrichment scheme appropriate for each experiment (i.e. 15N-only or 15N, 13C) in 20 mM MES buffer pH 6.5 with 250 mM NaCl and 10% 2H2O. Lower salt, even by 10%, yielded much degraded spectra. […]"}, "[3]": {"test": "CD secondary structure of GOLPH3 proteins (BestSel fits)", "assay_type": "physicochemical, human", "settings": "10 μM, 100 mM NaCl, 50 mM Tris pH 7.4, 1 mM TCEP, 20 °C", "description": "as §1\nIsothermal titration calorimetry […]\nas §2, §3, §4\nTable S2: Fits of CD spectra to fractions of secondary structure for Golph3 WT and various mutants of it, carried out with the BestSel server"}}}
{"compound": "CCCCCCCCCC[C@@H]1C(=O)O[C@H]1CCc1ccc(OC)c(OC)c1", "note": "[Palmostatin B]", "values": [{"measurement": "click-PEG signal upon Palmostatin B", "setting": "GOLPH3; 50 µM", "result": "increased the click-PEG signal"}]}
{"compound": "CC(=O)Nc1nc(C)c(-c2ccc(Cl)c(S(=O)(=O)NCCO)c2)s1", "note": "[PIK93]", "values": [{"measurement": "effect of PIK93 on localization of CERT", "setting": "PI4KIIIβ; CERT-GFP, HeLa", "result": "completely relocate CERT to the cytosol"}, {"measurement": "effect of PIK93 on Golgi localization of GOLPH3-C84A", "setting": "PI4KIIIβ; GOLPH3-KO HeLa expressing C84A", "result": "sensitive to PIK93"}, {"measurement": "effect of PIK93 on Golgi localization of GOLPH3 WT", "setting": "PI4KIIIβ; GOLPH3-KO HeLa expressing GOLPH3 WT, increasing PIK93 concentrations, versus CERT", "result": "significantly more resistant to PtdIns(4)P depletion"}, {"measurement": "effect of PIK93 on Golgi localization of GOLPH3-R90L", "setting": "PI4KIIIβ; GOLPH3-KO HeLa expressing R90L", "result": "insensitive to PIK93"}, {"measurement": "effect of PIK93 on Golgi localization of GOLPH3 mutated at Cys108 and Cys122", "setting": "PI4KIIIβ; GOLPH3-KO HeLa", "result": "strongly Golgi-associated, PIK93-insensitive form"}]}
{"compound": "GOLPH3 WT: recombinant human GOLPH3 (Q9H4A6, residues 52-298)", "values": [{"measurement": "Tm / melting temperature", "setting": "[1]", "result": 52.5, "unit": "°C"}, {"measurement": "oligomeric state", "setting": "[2]", "result": "monomeric"}, {"measurement": "% alpha", "setting": "[3]", "result": 41, "unit": "%"}, {"measurement": "% beta parallel", "setting": "[3]", "result": 0, "unit": "%"}, {"measurement": "% beta-antiparallel", "setting": "[3]", "result": 7, "unit": "%"}, {"measurement": "% others", "setting": "[3]", "result": 36, "unit": "%"}, {"measurement": "% turn", "setting": "[3]", "result": 16, "unit": "%"}]}
{"compound": "COc1ccc(N2CCN(C(=O)c3cc4c(s3)-c3ccccc3S(=O)(=O)C4)CC2)cc1", "note": "[ML349]", "values": [{"measurement": "click-PEG signal upon ML348/ML349", "setting": "GOLPH3; 10 µM", "result": "increased the click-PEG signal"}]}
